Source: US20250066323A1, “INHIBITORS OF HUMAN RESPIRATORY SYNCYTIAL VIRUS AND METAPNEUMOVIRUS” (priority 2023, published 2025)
Like-named read-outs stand apart in the source and are kept apart here.

Legend:
RSV-A2-GFP = RSV-A2-GFP viral replication assay; format: cell-based, Human Respiratory Syncytial Virus
Text: GFP sequence was derived from pJTI™ R4 Dest CMV N-EmGFP pA Vector (Invitrogen) and was cloned into the intergenic sequence between wild-type RSV-A2 P and M genes using standard recombineering techniques. Recombinant RSV-A2-GFP was propagated in Hep2 cells (human cells contains HeLa marker chromosomes and were derived via HeLa contamination, ATCC CCL-23) with infection Multiplicity of Infection (MOI) of 0.1. Virus was harvested 3 days after infection by collecting all culture material and freeze-thaw the viral culture in liquid nitrogen for at least 5 times. To generating virus working stocks, thaw frozen samples in 37° C. water bath then centrifuge at 218 g for 15 min at 4° C. Add 1/10 of 10×SPG (Biological Industries 06-3061-01-5A), mix, aliquot supernatant, and quick-freeze in liquid nitrogen then transfer to −80° C. freezer for storage. Virus titer was determined by automated plaque assay in HEp-2 cells following methods described previously (Wen Z. et al.; J Virol Methods. 2019 January; 263:88-95).
Calu-1 cells (human lung epidermoid carcinoma, ATCC HTB-54) assay ready freezedown (ARF generation described separately) were used in assays. Compound plates were prepared by dispensing compounds dissolved in DMSO into wells of 384 well coming 3985 polystyrene flat clear bottom optical imaging microplates (202.5 nL/well) using an ECHO acoustic dispenser. Each compound was tested in a 10-point serial 3-fold dilution (typical final concentrations: 403 nM-0.02 nM and 40.3 nM-0.002 nM). […] To set up the assay, thaw ARF vial(s) in 37° C. water bath until small ice crystal remain and resuspend into assay media (DMEM containing 2% FBS, 100 U/ml Penicillin-Streptomycin). Count cells using default parameters on ViCell and dilute to 20,000 cells per ml in assay media. Add RSV GFP to cells at 24,000 pfu/ml (MOI=1.2). Mix by gentle inversion. 10 μl/well of 100% DMSO was dispensed to CellTiter-Glo (CTG) assay Max_E controls wells. Dispense cells at 50 μl/well using Bravo and 50 μl filtered tips into compound plates. Cover plates with MicroClime lids loaded with 7.5 ml of assay media to minimize evaporation. Incubate at 37 degrees C. and 5% CO2 for 96 hrs. Following incubation, distinct, GFP-expressing cells are counted using an Acumen imaging system with appropriate settings. A same-well CTG assay is performed by adding 10 μl/well reconstituted CellTiter-Glo reagent (Promega G7573) and reading plates on PerkinElmer Envision according to manufacturer's instructions. Raw data were loaded and analyzed in ActivityBase. Antiviral IC50 and cytotoxicity CC50 values were determined using a 4 parameter logistic fit based on the Levenberg-Marquardt algorithm. Model: 205-4 Parameter Logistic.
Calu-1 cells were purchased from ATCC (Cat #HTB-54) and are expanded in growth media (DMEM containing 10% FBS, 100 U/ml Penicillin-Streptomycin). To make ARF, remove and discard cell culture media, briefly rinse the cell layer with PBS to remove all traces of serum. Add 2.5 ml of TrypLE Express solution and incubate until cells dislodge, then add growth media and resuspend the cells by gentle pipetting. Count cells for concentration and determine viability using a ViCell. Centrifuge at RT, 300 g for 5 min to pellet cells. Gently aspirate supernatant, flick pellet to loosen cells. Resuspend cells in an appropriate volume of freezing medium (DMEM containing 10% DMSO, 10% FBS, 100 U/ml Penicillin-Streptomycin) to achieve 5×10^6/ml. Transfer 1 ml of cell suspension to freezing vials. Put vials to CoolCell cryopreservation container and place CoolCell container upright in a −80° C. freezer overnight before transferring vials to liquid nitrogen vapor for storage.

hMPV-GFP = hMPV-GFP viral replication assay; format: cell-based, human metapneumovirus; settings: read-out: hMPV EC50
Protocol: GFP expressing rgHMPV #3 p3 was generated in Dr. Buchholz's lab (Biacchesi S. et al., J Virol. 2007 June; 81(11): 6057-6067.) and propagated in VERO cells (kidney tissue derived from a normal, adult African green monkey. ATCC Cat #CCL-81) with infection Multiplicity of Infection (MOI) of 0.1. Virus was harvested 4 days after infection by collecting all culture material and freeze-thaw the viral culture in liquid nitrogen twice. To generating virus working stocks, thaw frozen samples in 37° C. water bath then centrifuge at 218 g for 15 min at 4° C. Add 1/10 of 10×SPG (Biological Industries 06-3061-01-5A), mix, aliquot supernatant, and quick-freeze in liquid nitrogen then transfer to −80° C. freezer for storage. Virus titer was determined by performing titration test in 96-well plates and calculate approximate virus titer using GFP event/well data.
Compound plates were prepared by dispensing compounds dissolved in DMSO into wells of 384 well coming 3985 polystyrene flat clear bottom optical imaging microplates (202.5 nL/well) using an ECHO acoustic dispenser. Each compound was tested in a 10-point serial 3-fold dilution (typical final concentrations: 40,300 nM-2 nM). […] Continuous culture of VERO cells were maintained in complete culture media (OptiMEM supplemented with 2 mM GlutaMAX™ and 100 U/ml Penicillin-Streptomycin). To set up the assay, trypsinize VERO cells with 0.25% Trypsin-EDTA until cells dislodge, then re-suspend cells with 1 mL FBS. Spin down cells at 300 g for 5 min and wash cells twice in culture media, then count cells using default parameters on ViCell. Cells were then diluted to 100,000 cells/ml (5,000 cells/50 μl) in complete culture media+TrypLE Select (80 μl/ml). Add hMPV-GFP virus to cells at 125,000 pfu/ml (MOI=1.25). Mix by gentle inversion. 10 μl/well of 100% DMSO was dispensed to CellTiter-Glo (CTG) assay Max_E controls wells. Dispense cells at 50 μl/well using Bravo and 50 μl filtered tips into compound plates. Cover plates with MicroClime lids loaded with 7.5 ml of assay media to minimize evaporation. Lightly shake plate for 10 minutes at room temperature then incubate at 37 degrees C. and 5% CO2 for 48 hrs. Following incubation, distinct, GFP-expressing cells are counted using an Acumen imaging system with appropriate settings. A same-well CTG assay is performed by adding 10 μl/well reconstituted CellTiter-Glo reagent (Promega G7573) and reading plates on PerkinElmer Envision according to manufacturer's instructions. Raw data were loaded and analyzed in ActivityBase. Antiviral IC50 and cytotoxicity CC50 values were determined using a 4 parameter logistic fit based on the Levenberg-Marquardt algorithm. Model: 205-4 Parameter Logistic.

[1] = read-out: RSV EC50, Calu-1 cells, RSV-A2-GFP MOI=1.2, 96 hrs, GFP-expressing cells counted
[2] = human metapneumovirus, Vero, 48 h
[3] = human respiratory syncytial virus, Calu-1, 96 h, read-out: RSV EC50, Calu-1 cells, RSV-A2-GFP MOI=1.2, 96 hrs, GFP-expressing cells counted

CCOc1cc(C(=O)NCC(C)(O)c2cc(C(C)(C)N)cc(-c3ccc(F)cc3)n2)n(C)n1 (single isomer, unassigned) [Example 01-A]
EC50 (RSV-A2-GFP; [1]): > 100 nM | EC50 (hMPV-GFP; [2]): > 100 nM

CCOc1cc(C(=O)NCC(C)(O)c2cc(C(C)(C)N)cc(-c3ccc(F)cc3)n2)n(C)n1 (single isomer, unassigned) [Example 01-B]
EC50 (RSV-A2-GFP; [1]): < 10 nM | EC50 (hMPV-GFP; VERO cells, hMPV-GFP MOI=1.25, 48 hrs, GFP-expressing cells counted): > 100 nM

Cn1nc(-n2cccn2)cc1C(=O)NCC(C)(O)c1cc(C(C)(C)N)cc(-c2ccc(F)cc2)n1 (single isomer, unassigned) [Example 02-B]
EC50 (RSV-A2-GFP; [3]): < 10 nM | EC50 (hMPV-GFP; [2]): > 100 nM

Cn1nc(-c2ccon2)cc1C(=O)NCC(C)(O)c1cc(C(C)(C)N)cc(-c2ccc(F)cc2)n1 (single isomer, unassigned) [Example 03-B]
EC50 (RSV-A2-GFP; [3]): < 10 nM | EC50 (hMPV-GFP; [2]): > 100 nM

Cn1nc(-c2ncco2)cc1C(=O)NCC(C)(O)c1cc(C(C)(C)N)cc(-c2ccc(F)cc2)n1 (single isomer, unassigned) [Example 04-B]
EC50 (RSV-A2-GFP; [3]): < 10 nM | EC50 (hMPV-GFP; [2]): > 100 nM

Cn1nc(-c2cscn2)cc1C(=O)NCC(C)(O)c1cc(C(C)(C)N)cc(-c2ccc(F)cc2)n1 (single isomer, unassigned) [Example 05-B]
EC50 (RSV-A2-GFP; [3]): < 10 nM | EC50 (hMPV-GFP; [2]): > 100 nM

CCn1nc(-c2cscn2)cc1C(=O)NCC(C)(O)c1cc(C(C)(C)N)cc(-c2ccc(F)cc2)n1 (single isomer, unassigned) [Example 06-B]
EC50 (RSV-A2-GFP; [3]): < 10 nM | EC50 (hMPV-GFP; [2]): > 100 nM

Cc1nc(-c2cscn2)sc1C(=O)NCC(C)(O)c1cc(C(C)(C)N)cc(-c2ccc(F)cc2)n1 (single isomer, unassigned) [Example 07-B]
EC50 (RSV-A2-GFP; [3]): < 10 nM | EC50 (hMPV-GFP; [2]): > 100 nM

CC(C)(N)c1cc(-c2ccc(F)cc2)nc(C(C)(O)CNC(=O)c2sc(-c3cscn3)nc2C2CC2)c1 (single isomer, unassigned) [Example 08-B]
EC50 (RSV-A2-GFP; [3]): < 10 nM | EC50 (hMPV-GFP; [2]): > 100 nM

CC(C)(N)c1cc(-c2ccc(F)cc2)nc(C(C)(O)CNC(=O)c2cc(-c3cscn3)ns2)c1 (single isomer, unassigned) [Example 09-B]
EC50 (RSV-A2-GFP; [3]): < 10 nM | EC50 (hMPV-GFP; [2]): > 100 nM

CC(C)(N)c1cc(-c2ccc(F)cc2)nc(C(C)(O)CNC(=O)c2cc(-c3ncccn3)ns2)c1 (single isomer, unassigned) [Example 10-B]
EC50 (RSV-A2-GFP; [3]): < 10 nM | EC50 (hMPV-GFP; [2]): > 100 nM

COc1nn(-c2ncccn2)cc1C(=O)NCC(C)(O)c1cc(C(C)(C)N)cc(-c2ccc(F)cc2)n1 (single isomer, unassigned) [Example 11-B]
EC50 (RSV-A2-GFP; [3]): < 10 nM | EC50 (hMPV-GFP; [2]): > 100 nM

Cn1nc(-n2cccn2)cc1C(=O)NCC(C)(O)c1cc(C(C)(C)N)cc(-c2ccc(Cl)c(F)c2)n1 (single isomer, unassigned) [Example 39-B, N-(2-(4-(2-aminopropan-2-yl)-6-(4-chloro-3-fluorophenyl)pyridin-2-yl)-2-hydroxypropyl)-1′-methyl-1′H-[1,3′-bipyrazole]-5′-carboxamide]
EC50 (RSV-A2-GFP; [3]): < 10 nM

Cn1nc(-n2cccn2)cc1C(=O)NCC(C)(O)c1cc(C(C)(C)N)cc(Cc2ccc(F)cc2)n1 (single isomer, unassigned) [Example 40-B, N-(2-(4-(2-aminopropan-2-yl)-6-(4-fluorobenzyl)pyridin-2-yl)-2-hydroxypropyl)-1′-methyl-1′H-[1,3′-bipyrazole]-5′-carboxamide]
EC50 (RSV-A2-GFP; [3]): < 10 nM

Cn1nc(-n2cccn2)cc1C(=O)NCC(O)(c1cc(C(C)(C)N)cc(-c2ccc(C(F)F)cc2)n1)C(F)(F)F (single isomer, unassigned) [Example 41-A, N-(2-(4-(2-aminopropan-2-yl)-6-(4-(difluoromethyl)phenyl)pyridin-2-yl)-3,3,3-trifluoro-2-hydroxypropyl)-1′-methyl-1′H-[1,3′-bipyrazole]-5′-carboxamide]
EC50 (RSV-A2-GFP; [3]): < 10 nM

Cn1nc(-n2cccn2)cc1C(=O)NCC(O)(c1cc(C(C)(C)N)cc(-c2ccc(C(F)(F)F)cc2)n1)C(F)(F)F (single isomer, unassigned) [Example 42-A, N-(2-(4-(2-aminopropan-2-yl)-6-(4-(trifluoromethyl)phenyl)pyridin-2-yl)-3,3,3-trifluoro-2-hydroxypropyl)-1′-methyl-1′H-[1,3′-bipyrazole]-5′-carboxamide]
EC50 (RSV-A2-GFP; [3]): < 10 nM

Cn1nc(-n2cccn2)cc1C(=O)NCC(O)(c1cc(C(C)(C)N)cc(-c2ccc(F)c(F)c2)n1)C(F)(F)F (single isomer, unassigned) [Example 43-A, N-(2-(4-(2-aminopropan-2-yl)-6-(3,4-difluorophenyl)pyridin-2-yl)-3,3,3-trifluoro-2-hydroxypropyl)-1′-methyl-1′H-[1,3′-bipyrazole]-5′-carboxamide]
EC50 (RSV-A2-GFP; [3]): < 10 nM

Cn1nc(-n2cccn2)cc1C(=O)NCC(O)(c1cc(C(C)(C)N)cc(-c2ccc(F)cc2F)n1)C(F)(F)F (single isomer, unassigned) [Example 44-A, N-(2-(4-(2-aminopropan-2-yl)-6-(2,4-difluorophenyl)pyridin-2-yl)-3,3,3-trifluoro-2-hydroxypropyl)-1′-methyl-1′H-[1,3′-bipyrazole]-5′-carboxamide]
EC50 (RSV-A2-GFP; [3]): < 10 nM

Cc1cc(F)ccc1-c1cc(C(C)(C)N)cc(C(O)(CNC(=O)c2cc(-n3cccn3)nn2C)C(F)(F)F)n1 (single isomer, unassigned) [Example 45-A, N-(2-(4-(2-aminopropan-2-yl)-6-(4-fluoro-2-methylphenyl)pyridin-2-yl)-3,3,3-trifluoro-2-hydroxypropyl)-1′-methyl-1′H-[1,3′-bipyrazole]-5′-carboxamide]
EC50 (RSV-A2-GFP; [3]): < 10 nM
